Where two headings read alike, the source gives them in different places. One block for each molecule: values may come before it.
Key:
[1] = biological target: P-gp (MDR1) (Homo sapiens, UniProt P08183); assay: Transport of digoxin and ginsenosides across L-MDR1 cell monolayers (efflux ratio); type: in vitro ADME; details: human, read-out: Efflux ratio (Papp BL-AP / Papp AP-BL)
Procedure: (§1) LLC-PK1 cells, a cell line lacking P-gp, and the derived cell line L-MDR1, which over-express human MDR1-encoded P-gp, were grown in minimum essential medium with supplements at 37°C, 5% CO2, and 95% humidity. LLC-PK1 and L-MDR1 cells were seeded at a density of 12×10^6 cells per 150-cm^2 flask and grown for 7 days in medium 199 supplemented with 2 mM glutamine, 10% fetal bovine serum, 10 mg/500 mL of streptomycin, and 10,000 IU/500 mL of penicillin. To ensure a constant expression level of transport protein, L-MDR1 cells were grown in the presence of 640 nM vincristine. Cells were grown as monolayer on polycarbonate membrane filters (Transwell; Costar Corporation, Cambridge, MA) as outlined previously. Transepithelial resistance was measured in each well using a Millicell ERS ohmmeter (Millipore, Bedford, MA); wells registering a resistance of 200 ohms or greater, after correcting for the resistance obtained in control blank wells, were used in the transport experiments.
(§2) The LLC-PK1 and L-MDR1 cells were washed with warm Hank's balanced salt solution HBSS (pH 7.4) twice before transport experiment. HBSS containing verapamil (10 µM), SLE (2.0 and 10.0 µg/mL) or blank HBSS (control) was then loaded into both apical and basolateral chambers. After incubation at 37°C for 1.5 h, GE (100 µg/mL) was added to either the apical or basolateral side to evaluate the transport in absorptive and secretive directions, respectively. The cell monolayer was then incubated for another 2 h. Finally, the concentrations of ginsenosides were determined by LC/MS. All experiments were conducted in triplicate.
(§3) For the transport assay, the apparent permeability (P app, cm/s) in each direction (A→B and B→A) was calculated as follows, where A is the surface area of the membrane inserts (0.0804 cm^2), C 0 is the initial concentration of the compound applied in the donor compartment (2 µM), and △Q is the amount (micromoles) of compound transported over time △t (5 h = 18,000 s): [drawing 1]
(§4) The efflux ratio (ER) was a dimensionless number calculated as the ratio of the apparent permeability in the B→A direction divided by the apparent permeability in the A→B direction. [drawing 2]

[2] = biological target: T1, human MDR1-encoded P-gp (L-MDR1 cells) (Homo sapiens, UniProt P08183); assay: as above; type: in vitro ADME; details: for Effect of verapamil on efflux ratio / Papp / Effect of SLE on efflux ratio / transport: L-MDR1 cells; for Effect of verapamil on efflux ratio / Papp: 10 µM verapamil; for Effect of SLE on efflux ratio / transport: SLE 2.0 and 10.0 µg/mL; for P-gp substrate classification: summary of transport/uptake in LLC-PK1, L-MDR1 and Caco-2 cells with verapamil
Procedure: as §1, §2, §3, §4

[3] = tested on: LLC-PK1 cells (lacking P-gp); assay: Transport of digoxin and ginsenosides across LLC-PK1 cell monolayers; type: in vitro ADME; details: for Effect of verapamil on transport (efflux ratio): 10 µM verapamil; for Effect of SLE on transport (AP→BL, BL→AP): SLE 2.0 and 10.0 µg/mL
Procedure: as §1, §2, §3, §4

[4] = biological target: T1, human MDR1-encoded P-gp (L-MDR1 cells); assay: Uptake (intracellular concentration) of digoxin and ginsenosides in L-MDR1 cells; type: in vitro ADME
Procedure: as §1
LLC-PK1 and L-MDR1 cells were incubated with SLE (2.0 and 10.0 µg/mL) or verapamil (10 µM) for 1.0 h, and then were washed to discard SLE or verapamil before adding 100 µg/mL of GE. The accumulation of GE lasted for 2 h, and the intracellular concentrations of ginsenosides were measured by LC/MS. All experiments were conducted in triplicate.

[5] = Rat plasma pharmacokinetics after single-dose vehicle/SLE and digoxin or GE; type: in vivo, Sprague-Dawley rats; details: for AUC(0-inf): read-out: AUCINF_obs; for MRT inf: read-out: MRTINF_obs
Procedure: This study was carried out in strict accordance with the recommendations in the Guide for the Care and Use of Laboratory Animals of the National Institutes of Health. The protocol was approved by the Committee on the Ethics of Animal Experiments of the China Pharmaceutical University. All surgery was performed under sodium pentobarbital anesthesia, and all efforts were made to minimize suffering. Female healthy Sprague-Dawley rats (200±20 g) were purchased from the Laboratory Animal Center of Peking University Health Science Center (Beijing, PR China) and kept in an environmentally controlled breeding room for at least 3 days before experimentation. The rats were fed with standard laboratory food and water and fasted overnight but with free access to water before the test. To evaluate the effect of single treatment of SLE on the pharmacokinetics of ginsenosides, 24 rats were divided into four groups (group I ∼ group IV) averagely. […] In group II (control group): the rats received a single dose of vehicle (0.5% CMC-Na), and digoxin (0.5 mg/kg) was also given to the rats by intragastric administration. […] In group IV (control group): the rats received a single dose of vehicle (0.5% CMC-Na), and GE (120 mg/kg) was also given to the rats by gavage. […] Plasma was obtained by centrifugation at 5000 g for 10 min and stored at −20°C before analysis. The plasma / cell samples were extracted using a liquid–liquid extraction technique. To each tube containing 100 µL plasma, 10 µL internal standard (digoxin, 1.0 µg/mL) and 1.0 mL of n-butanol were added. The mixture was then vortex-extracted for 2 min, and centrifuged for 10 min at 10,000 g. […] The plasma concentration-time curves of ginsenosides in rats were obtained by plotting the mean plasma concentrations versus time. Pharmacokinetic parameters were calculated using the WinNonlin 6.3 program (Pharsight Inc., Mountain View, CA). The elimination half-life (t 1/2) value was calculated as 0.693/β, where β is the elimination rate constant calculated from the terminal linear portion of the log plasma concentration-time curve. The total areas under the plasma concentration- time curve from time 0 to the last quantifiable time point (AUC0-t) and from time 0 to infinity (AUC0-∞) were calculated using the log trapezoidal rule. [drawing 3] The maximum plasma concentrations (C max) for ginsenosides were obtained by visual inspection of the plasma concentration-time curve, whereas the initial drug concentration (the extrapolated concentration at zero time) of the drug after intravenous injection was calculated by back-extrapolation of the plasma concentration-time curve to the y-axis.

[6] = LLC-PK1, pH 7.4, L-MDR1 cells, control (absence of verapamil), GE 100 µg/mL, 2 h
[7] = LLC-PK1, pH 7.4, with verapamil 10 µM, L-MDR1 cells, presence of 10 µM verapamil
[8] = female, Sprague-Dawley, rat, plasma, po, rats, control: single vehicle, 2 h later digoxin 0.5 mg/kg or GE 120 mg/kg ig
[9] = female, Sprague-Dawley, rat, plasma, po, rats, single SLE 500 mg/kg ig, 2 h later digoxin 0.5 mg/kg or GE 120 mg/kg ig
[10] = rats, single-dose SLE 500 mg/kg vs vehicle, GE ig
[11] = female, Sprague-Dawley, rat, in vivo, po

P-gp (MDR1), sequence (P08183 whole entry): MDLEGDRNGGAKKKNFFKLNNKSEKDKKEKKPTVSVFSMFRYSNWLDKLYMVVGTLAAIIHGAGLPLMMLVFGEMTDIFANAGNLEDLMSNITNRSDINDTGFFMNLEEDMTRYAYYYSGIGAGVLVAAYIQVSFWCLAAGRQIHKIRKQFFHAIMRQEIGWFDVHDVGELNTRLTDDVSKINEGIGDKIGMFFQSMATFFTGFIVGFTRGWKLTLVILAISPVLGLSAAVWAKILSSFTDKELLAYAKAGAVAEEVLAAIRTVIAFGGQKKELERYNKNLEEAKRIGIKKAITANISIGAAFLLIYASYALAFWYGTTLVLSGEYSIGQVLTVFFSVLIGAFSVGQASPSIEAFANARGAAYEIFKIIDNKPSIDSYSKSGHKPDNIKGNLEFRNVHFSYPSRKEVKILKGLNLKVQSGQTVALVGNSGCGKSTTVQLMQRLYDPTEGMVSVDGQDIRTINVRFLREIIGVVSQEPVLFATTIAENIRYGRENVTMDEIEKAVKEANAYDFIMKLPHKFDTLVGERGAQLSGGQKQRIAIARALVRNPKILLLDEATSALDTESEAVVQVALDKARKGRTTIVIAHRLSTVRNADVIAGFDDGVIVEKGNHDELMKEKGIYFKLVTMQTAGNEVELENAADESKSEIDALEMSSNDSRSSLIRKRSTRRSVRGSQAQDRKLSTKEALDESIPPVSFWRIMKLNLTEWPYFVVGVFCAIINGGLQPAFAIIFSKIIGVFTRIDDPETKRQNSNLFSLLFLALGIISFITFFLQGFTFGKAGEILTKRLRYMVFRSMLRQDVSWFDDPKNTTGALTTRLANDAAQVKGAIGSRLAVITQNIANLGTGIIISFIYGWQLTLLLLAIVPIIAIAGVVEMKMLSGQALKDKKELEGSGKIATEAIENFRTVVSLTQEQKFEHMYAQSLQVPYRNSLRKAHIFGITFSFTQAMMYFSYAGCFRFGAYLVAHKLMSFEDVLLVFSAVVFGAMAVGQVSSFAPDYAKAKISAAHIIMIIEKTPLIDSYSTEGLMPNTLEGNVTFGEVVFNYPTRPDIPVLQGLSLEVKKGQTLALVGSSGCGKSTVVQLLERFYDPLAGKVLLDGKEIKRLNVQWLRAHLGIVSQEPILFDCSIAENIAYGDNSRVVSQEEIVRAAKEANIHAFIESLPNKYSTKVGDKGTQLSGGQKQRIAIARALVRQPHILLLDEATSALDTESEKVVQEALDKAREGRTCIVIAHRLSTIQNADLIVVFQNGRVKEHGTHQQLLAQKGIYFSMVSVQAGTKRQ
T1 sequence (P08183 whole entry): as above

efflux ratio at 2 h, 100 µg/mL [1, 6]: > 3.5 | efflux ratio at 2 h, 100 µg/mL [1, 7]: 1.57 | Effect of verapamil on efflux ratio / Papp [2]: significantly decrease of ER | Effect of SLE on efflux ratio / transport [2]: significantly decreased | P-gp substrate classification [2]: moderate P-gp substrates | Effect of verapamil on transport (efflux ratio) [3]: No transport difference | Effect of SLE on transport (AP→BL, BL→AP) [3]: No transport difference | Increase of intracellular concentration by SLE ([4]; 2.0 µg/mL SLE): 2.9 fold | Increase of intracellular concentration by SLE ([4]; 10.0 µg/mL SLE): 5.1 fold | half-life ([5]; female, Sprague-Dawley, rat, plasma, po, rats, control: single vehicle (0.5% sodium CMC), 2 h later digoxin 0.5 mg/kg or GE 120 mg/kg ig, read-out: t1/2 (converted)): 13.3 ± 2.43 h | AUC [5, 8]: 14300 ± 2380 ng·h/mL | Cmax [5, 8]: 491 ± 61.4 ng/mL | AUC(0-inf) [5, 8]: 14400 ± 2470 ng·h/mL | MRT inf [5, 8]: 23.1 ± 4.31 h | Tmax ([5]; female, Sprague-Dawley, rat, plasma, po, rats, control: single vehicle, 2 h later digoxin 0.5 mg/kg or GE 120 mg/kg ig, read-out: Tmax): 7.5 ± 1 h | AUC [5, 9]: 18500 ± 5780 ng·h/mL | Cmax [5, 9]: 651 ± 127 ng/mL | AUC(0-inf) [5, 9]: 18500 ± 5730 ng·h/mL | MRT inf [5, 9]: 23.5 ± 2.68 h | Tmax ([5]; female, Sprague-Dawley, rat, plasma, po, rats, single SLE 500 mg/kg ig, 2 h later digoxin 0.5 mg/kg or GE 120 mg/kg ig, read-out: Tmax): 11 ± 2 h | half-life ([5]; female, Sprague-Dawley, rat, plasma, po, rats, single SLE 500 mg/kg ig, 2 h later digoxin 0.5 mg/kg or GE 120 mg/kg ig, read-out: t1/2 (converted)): 11.3 ± 2.74 h | Cl_F_obs ([5]; rats, control: single vehicle, 2 h later digoxin 0.5 mg/kg or GE 120 mg/kg ig): 0.007 ± 0.001 L/h | Cl_F_obs ([5]; rats, single SLE 500 mg/kg ig, 2 h later digoxin 0.5 mg/kg or GE 120 mg/kg ig): 0.006 ± 0.002 L/h | Effect of SLE treatment on Cmax [5, 10]: significantly enhanced | Increase of AUC (AUC0-∞) by coadministration of SLE [5, 10]: 1.29 fold
SMILES: CC(C)=CCC[C@](C)(O[C@@H]1O[C@H](CO[C@@H]2O[C@H](CO)[C@@H](O)[C@H](O)[C@H]2O)[C@@H](O)[C@H](O)[C@H]1O)[C@H]1CC[C@]2(C)[C@@H]1[C@H](O)C[C@@H]1[C@@]3(C)CC[C@H](O[C@@H]4O[C@H](CO)[C@@H](O)[C@H](O)[C@H]4O[C@@H]4O[C@H](CO)[C@@H](O)[C@H](O)[C@H]4O)C(C)(C)[C@@H]3CC[C@]12C [Rb1, ginsenoside Rb1]

efflux ratio at 2 h, 100 µg/mL [1, 6]: > 3.5 | efflux ratio at 2 h, 100 µg/mL [1, 7]: 1.42 | Effect of verapamil on efflux ratio / Papp [2]: significantly decrease of ER | Effect of SLE on efflux ratio / transport [2]: significantly decreased | P-gp substrate classification [2]: moderate P-gp substrates | Effect of verapamil on transport (efflux ratio) [3]: No transport difference | Effect of SLE on transport (AP→BL, BL→AP) [3]: No transport difference | Increase of intracellular concentration by SLE ([4]; 2.0 µg/mL SLE): 1.9 fold | Increase of intracellular concentration by SLE ([4]; 10.0 µg/mL SLE): 3.5 fold | Tmax [5, 11]: 9.00 ± 2.00 h | t1/2 [5, 11]: 16.90 ± 2.14 h | Tmax ([5]; female, Sprague-Dawley, rat, in vivo, po, Tmax): 9.5 ± 3 h | half-life ([5]; female, Sprague-Dawley, rat, in vivo, po, t1/2): 17.3 ± 4.54 h
SMILES: CC(C)=CCC[C@](C)(O[C@@H]1O[C@H](CO[C@@H]2O[C@@H](CO)[C@H](O)[C@H]2O)[C@@H](O)[C@H](O)[C@H]1O)[C@H]1CC[C@]2(C)[C@@H]1[C@H](O)C[C@@H]1[C@@]3(C)CC[C@H](O[C@@H]4O[C@H](CO)[C@@H](O)[C@H](O)[C@H]4O[C@@H]4O[C@H](CO)[C@@H](O)[C@H](O)[C@H]4O)C(C)(C)[C@@H]3CC[C@]12C [Rc, ginsenoside Rc]

From PMC4055595, “Pharmacokinetic Compatibility of Ginsenosides and Schisandra Lignans in Shengmai-san: From the Perspective of P-Glycoprotein” (PLoS ONE, 2014)
